Earlier results as cited in US20250325480A1, “Lipid Nanoparticle Compositions and Methods For Formulating Insoluble Drugs” (RESPIRERX PHARMACEUTICALS, INC., priority 2022, published 2025).

Columns and labels:
[1] = not given; remark: listed apart in the source

CCCCCc1cc(O)c2c(c1)OC(C)(C)[C@@H]1CCC(C)=C[C@@H]21 [Dronabinol, (−)-trans-Δ^9-tetrahydrocannabinnol]
Metabolic breakdown upon first pass through the liver (as presently formulated): approximately 80% | Half-life (in vivo): 2 to 3 h | Adverse side effects ([1]; 10 mg dose, Marinol package insert): unacceptable adverse side effects | OSA alleviating effects ([1]; 2.5 and 10 mg doses, first 4 hours of 8-hour test period): therapeutically equivalent OSA alleviating effects | Therapeutic effects in OSA ([1]; second 4 hours of 8-hour test period): only the 10 mg dose produced therapeutic effects
